Data from patent publication US12059425B2, “Heterocyclic compounds and uses thereof” (Kumquat Biosciences Inc., priority 2022, dated 2024).

Key:
K-Ras G12D = target: T1, K-Ras G12D (Homo sapiens, UniProt P01116, G12D); test: PPI-HTRF assay, K-Ras G12D / SOS1 interaction; assay type: biochemical; conditions: HTRF, K-Ras G12D; read-out: PPI-HTRF-5 nM (K-Ras G12D IC50)
T1 construct: made in house; host or cells: E. coli, e.g. BL21 (DE3)
Source text: (§1) This assay can be also used to assess a selective inhibition or reduction of signaling output of a mutant Ras protein relative to a wildtype, or relative to a different mutant Ras protein. For example, the equilibrium interaction of wildtype Kras or K-Ras mutant (e.g., wildtype or a mutant thereof) with SOS1 (e.g., hSOS1) can be assessed as a proxy or an indication for a subject compound's ability to bind and inhibit Ras protein. HTRF assay detects from (i) a fluorescence resonance energy transfer (FRET) donor (e.g., antiGST-Europium) that is bound to GST-tagged K-Ras mutant to (ii) a FRET acceptor (e.g., anti-6His-XL665) bound to a His-tagged hSOS1.
(§2) The assay buffer can contain ˜5 mM HEPES pH 7.4, ˜150 mM NaCl, ˜1 mM DTT, 0.05% BSA and 0.0025% (v/v) Igepal. A Ras working solution is prepared in an assay buffer containing typically a suitable amount of the protein construct (e.g., GST-tagged K-Ras mutant) and the FRET donor (e.g., antiGST-Eu(K) from Cisbio, France). A SOS1 working solution is prepared in an assay buffer containing suitable amount of the protein construct (e.g., His-hSOS1) and the FRET acceptor (e.g., anti-6His-XL665 from Cisbio, France). A suitable amount of the protein construct will depend on the range of activity or range of IC50 values being detected or under investigation. For detecting IC50 within a range of 500 nM, the protein constructs of the same range of molarity can be utilized.
(§3) A fixed volume of DMSO with or without test compound is transferred into a 384-well plate. Ras working solution is added to all wells of the test plate. SOS1 working solution is added to all wells except for those that are subsequently filled the inhibitor control solution. Upon incubation for about 10 minutes or longer, the fluorescence is measured with a M1000Pro plate reader (Tecan) using HTRF detection (excitation 337 nm, emission 1: 620 nm, emission 2: 665 nm). Compounds are tested in duplicate at different concentrations (for example, 10 μM, 2.5 μM, 0.63 μM, 0.16 μM, 0.04 μM, 0.01 μM test compound). The ratiometric data (i.e., emission 2 divided by emission 1) is used to calculate IC50 values against Ras using GraphPad Prism (GraphPad software). Following this general procedure, samples are tested with or without a subject compound disclosed herein including compounds exemplified in Table 1 to assess their abilities to inhibit a mutant K-Ras relative to another K-Ras (e.g., different mutant or wildtype). Signaling output measured in terms of IC50 values can be obtained, a ratio of IC50 against one mutant relative to another mutant can be calculated. For instance, a selective reduction of K-Ras G12D signaling output can be evidenced by a ratio greater than one. In particular, a selective reduction of K-Ras G12D signaling relative to K-Ras WT signaling is evidenced if the ratio of IC50 (against K-Ras WT) to IC50 (against K-Ras G12D) is greater than 1.

GP2D cells = test: Ras cellular assay, cell proliferation GP2D; assay type: cell-based
Procedure: (§4) For example, this assay can be also used to assess selective growth inhibition of a mutant Ras protein relative to a wildtype, or relative to a different mutant Ras protein.
ASPC-1 (ATCC CRL-1682), Panc-10.05 (ATCC CRL-2547), A427, GP2d cell lines or any other cell lines comprising a G12D mutation can be used to assess Ras cellular signaling in vitro, e.g., in response to a compound described herein. For example, ASPC-1 culture medium is prepared with RPMI-1640 and 10% heat-inactivated FBS. Panc-10.05 culture medium is prepared with RPMI-1640, 10 Units/mL human recombinant insulin, and 10% FBS. A427 cell culture is prepared with RPMI-1640 and 10% heat-inactivated FBS. A CellTiter-Glo (CTG) luminescent based assay (Promega) is used to assess growth of the cells, as a measurement of the ability of the compounds herein to inhibit Ras signaling in the cells. The cells (e.g., 800 per well) are seeded in their respective culture medium in standard tissue culture-treated 384-well format plates (Falcon #08-772-116) or ultra-low attachment surface 384-well format plates (S-Bio #MS-9384UZ). The day after plating, cells are treated with a dilution series (e.g., a 9 point 3-fold dilution series) of the compounds herein (e.g., approximately 40 μL final volume per well). Cell viability can be monitored (e.g., approximately 5 days later) according to the manufacturer's recommended instructions, where the CellTiter-Glo reagent is added (e.g., approximately 10 μL), vigorously mixed, covered, and placed on a plate shaker (e.g., approximately for 20 min) to ensure sufficient cell lysis prior to assessment of luminescent signal. The IC50 values are determined using the four parameter fit. The resulting IC50 value is a measurement of the ability of the test compound to reduce cell growth of Ras-driven cells (e.g., tumor cell lines) in vitro and/or in vivo.

K-Ras G12V = target: T2, K-Ras G12V (Homo sapiens, UniProt P01116, G12V); test: PPI-HTRF assay, K-Ras G12V / SOS1 interaction; assay type: biochemical; conditions: HTRF, K-Ras G12V; read-out: PPI-HTRF-5 nM (K-Ras G12V IC50)
T2 construct: made in house; host or cells: E. coli, e.g. BL21 (DE3)
Source text: as §1, §2, §3

SW620 cells = test: Ras cellular assay, cell proliferation SW620; assay type: cell-based; conditions: Homo sapiens, SW-620
Source text: as §4

K-Ras G12S = target: T3, K-Ras G12S (Homo sapiens, UniProt P01116, G12S); test: PPI-HTRF assay, K-Ras G12S / SOS1 interaction; assay type: biochemical; conditions: read-out: PPI-HTRF-5 nM (K-Ras G12S IC50)
T3 construct: made in house; host or cells: E. coli, e.g. BL21 (DE3)
Source text: as §1, §2, §3

wildtype K-Ras = target: T4, wildtype K-Ras (Homo sapiens, UniProt P01116); test: PPI-HTRF assay, wildtype K-Ras / SOS1 interaction; assay type: biochemical; conditions: HTRF, K-Ras wt; read-out: PPI-HTRF-5 nM (K-Ras wt IC50)
T4 construct: made in house; host or cells: E. coli, e.g. BL21 (DE3)
Source text: as §1, §2, §3

T1 sequence (P01116 1-188 isoform P01116-2 G12D): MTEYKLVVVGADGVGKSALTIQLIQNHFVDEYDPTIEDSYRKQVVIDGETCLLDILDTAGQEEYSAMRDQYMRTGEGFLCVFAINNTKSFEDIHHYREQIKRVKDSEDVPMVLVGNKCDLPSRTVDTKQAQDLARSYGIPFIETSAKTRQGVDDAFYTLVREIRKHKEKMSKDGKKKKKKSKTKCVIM
T4 sequence (P01116 1-188 isoform P01116-2): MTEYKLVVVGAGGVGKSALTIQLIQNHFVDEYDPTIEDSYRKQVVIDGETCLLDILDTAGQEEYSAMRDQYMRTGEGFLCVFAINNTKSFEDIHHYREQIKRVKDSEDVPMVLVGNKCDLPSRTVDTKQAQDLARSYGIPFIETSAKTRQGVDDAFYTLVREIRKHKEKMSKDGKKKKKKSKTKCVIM
T2 sequence (P01116 1-188 isoform P01116-2 G12V): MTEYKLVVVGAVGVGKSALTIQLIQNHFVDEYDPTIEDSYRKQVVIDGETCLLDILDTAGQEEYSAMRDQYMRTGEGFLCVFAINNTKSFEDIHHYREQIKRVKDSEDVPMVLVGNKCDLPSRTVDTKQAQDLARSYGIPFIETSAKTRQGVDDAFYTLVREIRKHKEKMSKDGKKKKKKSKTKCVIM
T3 sequence (P01116 1-188 isoform P01116-2 G12S): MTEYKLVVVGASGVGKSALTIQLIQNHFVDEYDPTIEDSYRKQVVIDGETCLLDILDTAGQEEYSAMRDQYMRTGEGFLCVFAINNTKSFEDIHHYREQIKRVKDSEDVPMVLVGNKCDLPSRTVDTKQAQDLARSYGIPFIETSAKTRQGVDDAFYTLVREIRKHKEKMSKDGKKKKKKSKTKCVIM

Structure (SMILES)	IC50 (K-Ras G12D)	IC50 (GP2D cells)	IC50 (K-Ras G12V)	IC50 (SW620 cells)	IC50 (K-Ras G12S)	IC50 (wildtype K-Ras)
CN1CC2COCC2Oc2c(Cl)c(-c3ccc(F)c4sc(N)c(C#N)c34)c(F)c3nc(OC[C@@]45CCCN4C[C@H](F)C5)nc1c23 (stereo partly drawn) [compound 113, 2-amino-4-(1-chloro-3-fluoro-5-(((2R,7aS)-2-fluorotetrahydro-1H-pyrrolizin-7a(5H)-yl)methoxy)-7-methyl-7,8,8a,9,11,11a-hexahydrofuro[3′,4′:7,8][1,5]oxazocino[4,3,2-de]quinazolin-2-yl)-7-fluorobenzo[b]thiophene-3-carbonitrile]	< 5 µM	< 5 µM	< 5 µM	< 5 µM	< 5 µM	< 5 µM
CN(C)CCCN1c2nc(OC[C@@]34CCCN3C[C@H](F)C4)nc3c(F)c(-c4ccc(F)c5sc(N)c(C#N)c45)c(Cl)c(c23)OCC2COCC21 (stereo partly drawn) [compound 209, 2-amino-4-(6-chloro-12-(3-(dimethylamino)propyl)-4-fluoro-2-(((2R,7aS)-2-fluorotetrahydro-1H-pyrrolizin-7a(5H)-yl)methoxy)-8a,9,11a,12-tetrahydro-8H,11H-furo[3′,4′:6,7][1,5]oxazocino[4,3,2-de]quinazolin-5-yl)-7-fluorobenzo[b]thiophene-3-carbonitrile]	< 5 µM	< 5 µM	< 5 µM	< 5 µM	< 5 µM	< 5 µM
N#Cc1c(N)sc2c(F)ccc(-c3c(Cl)c4c5c(nc(OC[C@@]67CCCN6C[C@H](F)C7)nc5c3F)N3C[C@H](NC(=O)[C@H]5CN5)C[C@H]3CO4)c12 [compound 111, (2R)-N-((2R,12aS)-9-(2-amino-3-cyano-7-fluorobenzo[b]thiophen-4-yl)-10-chloro-8-fluoro-6-(((2R,7aS)-2-fluorotetrahydro-1H-pyrrolizin-7a(5H)-yl)methoxy)-2,3,12,12a-tetrahydro-1H-pyrrolo[2′,1′:,4][1,4]oxazepino[5,6,7-de]quinazolin-2-yl)aziridine-2-carboxamide]	< 5 µM	> 5 µM	< 5 µM	> 5 µM	< 5 µM	< 5 µM
N#Cc1c(N)sc2c(F)ccc(-c3c(Cl)c4c5c(nc(OC[C@@]67CCCN6C[C@H](F)C7)nc5c3F)N3CC(N)CCC3CCO4)c12 (stereo partly drawn) [compound 129, 2-amino-4-(9-amino-3-chloro-1-fluoro-13-(((2R,7aS)-2-fluorotetrahydro-1H-pyrrolizin-7a(5H)-yl)methoxy)-6,6a,7,8,9,10-hexahydro-5H-pyrido[1′,2′:5,6][1,5]oxazocino[4,3,2-de]quinazolin-2-yl)-7-fluorobenzo[b]thiophene-3-carbonitrile]	< 5 µM	< 5 µM	< 5 µM	> 5 µM	< 5 µM	< 5 µM
CNCC(C)N1c2nc(OC[C@@]34CCCN3C[C@H](F)C4)nc3c(F)c(-c4ccc(F)c5sc(N)c(C#N)c45)c(Cl)c(c23)OCC2COCC21 (stereo partly drawn) [compound 109, 2-amino-4-(6-chloro-4-fluoro-2-(((2R,7aS)-2-fluorotetrahydro-1H-pyrrolizin-7a(5H)-yl)methoxy)-12-(1-(methylamino)propan-2-yl)-8a,9,11a,12-tetrahydro-8H,11H-furo[3′,4′:6,7][1,5]oxazocino[4,3,2-de]quinazolin-5-yl)-7-fluorobenzo[b]thiophene-3-carbonitrile]	< 5 µM	> 5 µM	< 5 µM	> 5 µM	< 5 µM	< 5 µM
N#Cc1c(N)sc2c(F)ccc(-c3c(Cl)c4c5c(nc(OC[C@@]67CCCN6C[C@H](F)C7)nc5c3F)N3CCC[C@@H]3CC(CO)O4)c12 (single isomer, unassigned) [compound 177]	< 5 µM	< 5 µM	< 5 µM	< 5 µM	< 5 µM	< 5 µM
N#Cc1c(N)sc2c(F)ccc(-c3c(Cl)c4c5c(nc(OC[C@@]67CCCN6C[C@H](F)C7)nc5c3F)N(CC(F)F)CC3COCC3O4)c12 (stereo partly drawn) [compound 112, 2-amino-4-(1-chloro-7-(2,2-difluoroethyl)-3-fluoro-5-(((2R,7aS)-2-fluorotetrahydro-1H-pyrrolizin-7a(5H)-yl)methoxy)-7,8,8a,9,11,11a-hexahydrofuro[3′,4′:7,8][1,5]oxazocino [4,3,2-de]quinazolin-2-yl)-7-fluorobenzo[b]thiophene-3-carbonitrile]	< 5 µM	> 5 µM	< 5 µM	< 5 µM	< 5 µM	< 5 µM
CC(CN(C)C)N1c2nc(OC[C@@]34CCCN3C[C@H](F)C4)nc3c(F)c(-c4ccc(F)c5sc(N)c(C#N)c45)c(Cl)c(c23)OCC2COCC21 (stereo partly drawn) [compound 102, 2-amino-4-(6-chloro-12-(1-(dimethylamino)propan-2-yl)-4-fluoro-2-(((2R,7aS)-2-fluorotetrahydro-1H-pyrrolizin-7a(5H)-yl)methoxy)-8a,9,11a,12-tetrahydro-8H,11H-furo[3′,4′:6,7][1,5]oxazocino[4,3,2-de]quinazolin-5-yl)-7-fluorobenzo[b]thiophene-3-carbonitrile]	< 5 µM	< 5 µM	< 5 µM	> 5 µM	< 5 µM	< 5 µM
CNC1CCN2c3nc(OC[C@@]45CCCN4C[C@H](F)C5)nc4c(F)c(-c5ccc(F)c6sc(N)c(C#N)c56)c(Cl)c(c34)OCCC2C1 (stereo partly drawn) [compound 158, 2-amino-4-(3-chloro-1-fluoro-13-(((2R,7aS)-2-fluorotetrahydro-1H-pyrrolizin-7a(5H)-yl)methoxy)-8-(methylamino)-6,6a,7,8,9,10-hexahydro-5H-pyrido[11,2′:5,6][1,5]oxazocino[4,3,2-de]quinazolin-2-yl)-7-fluorobenzo[b]thiophene-3-carbonitrile]	< 5 µM	> 5 µM	< 5 µM	< 5 µM	< 5 µM	< 5 µM
